# Reference: patent US7803801B2, “Aminopyridine compounds having Syk inhibitory activity” (Japan Tobacco, Inc., priority 2005, dated 2010)
# Structures can show the parent of a compound that is named as a salt.
# Target: GST-Syk Full Protein (human) (Homo sapiens, UniProt P43405)
# Test: Syk kinase inhibition test (HTRF method)
# Assay type: biochemical
# Details: HTRF, 100 μM ATP, 30 min room temperature, average; read-out: sykHTRF ave IC50
# Experimental: Syk Kinase Inhibition Test (HTRF Method)
# After the compounds were serially diluted with dimethylsulfoxide (DMSO), 10 μL of those 10-fold diluted with kinase buffer (20 mM HEPES pH 7.0, 10 mM MgCl2, 50 mM NaCl, 1 mM 2-ME, 0.05% BSA) was added to opti-plate HTRF-96 (Packard) (final DMSO concentration: 2%). 20 μL of a substrate solution (kinase buffer as mentioned above containing Syk Specific-Peptide Substrate Biot-EDPDYEWPSA-NH2 (Peptide Laboratory) 625 nM, 250 μM ATP (SIGMA) was added (final substrate concentration 250 nM, 100 μM ATP), and further 20 μL of an enzyme solution (kinase buffer as mentioned above containing GST-Syk Full Protein (human) 16 nM) (final concentration 6.4 nM) was added and the mixture was immediately stirred with a plate shaker to start enzyme reaction. After reacted at room temperature (20 to 25° C.) for 30 minutes, the enzyme reaction was terminated by adding 100 μL/well of a buffer for terminating and detecting the reaction (30 mM HEPES pH 7.0, 150 mM KF, 0.15% BSA, 0.075% Tween-20, 75 mM EDTA) containing HTRF reagent (5 μg/ml XL665-Streptavidin (CIS bio), 170 ng/ml Eu(K)-anti-PhosphoTyrosin, PT-66 (CIS bio)) (final concentration 20 mM HEPES pH 7.0, 100 mM KF, 0.1% BSA, 0.05% Tween-20, 50 mM EDTA). After allowed to stand still at room temperature for 1 hour, inhibitory effect of a compound against Syk kinase enzymatic activity was evaluated by measuring 665/620 fluorescence ratio to excitation light at 337 nm by ARVO (Wallac).
row,Structure (SMILES),IC50
1,Cc1ccnc(Nc2cccc(-c3cnc([C@H](Cc4ccc(OCc5ccccc5)cc4)NC(=O)OC(C)(C)C)s3)n2)c1 [Compound A-85],> 1000 nM
2,CON(C)C(=O)c1nc([C@H](C)NC(C)=O)sc1-c1cccc(Nc2cc(C)ccn2)n1 [Compound A-125],> 1000 nM
3,CCOC(=O)Cc1ccnc(Nc2cccc(-c3cnc([C@H](C)NC(C)=O)s3)n2)c1 [Compound A-329],100 to 1000 nM

# Same assay, conditions: Tables 1-x, compounds A; read-out: sykHTRF ave IC50
row,Structure (SMILES),IC50
1,Cc1ccnc(Nc2cccc(-c3cnc(N(C)Cc4ccc(OCc5ccccc5)cc4)s3)n2)c1 [Compound A-462],100 to 1000 nM
2,Cc1ccnc(Nc2cccc(-c3cnc(N4CCC(NC(=O)C5CCC(O)CC5)CC4)s3)n2)c1 (stereo not drawn) [Compound A-662],100 to 1000 nM
3,Cc1ccnc(Nc2cccc(-c3cnc(N4CCC[C@H]4C(=O)NS(C)(=O)=O)s3)n2)c1 [Compound A-646],100 to 1000 nM
4,O=C(O)C1CCN(c2ncc(-c3cccc(Nc4ccccn4)n3)s2)CC1 [Compound A-683],100 to 1000 nM
5,CNC(=O)C(C(C)C)N(C)c1ncc(-c2cccc(Nc3cc(C)ccn3)n2)s1 (stereo not drawn) [Compound A-674],100 to 1000 nM
6,COC(=O)N(CCCC(=O)O)Cc1ncc(-c2cccc(Nc3cc(C)ccn3)n2)s1 [Compound A-585],100 to 1000 nM
7,Cc1ccnc(Nc2cccc(-c3cnc(N4CCC[C@H]4C(=O)NCC(C)(C)C)s3)n2)c1 [Compound A-660],100 to 1000 nM
8,CC(=O)N1CCC(N(CCNC(=O)N(C)C)c2ncc(-c3cccc(Nc4cc(C)ccn4)n3)s2)CC1 [Compound A-523],100 to 1000 nM
9,Cc1cc(C)nc(Nc2cccc(-c3cnc(N4CCC(CC(=O)O)CC4)s3)n2)c1 [Compound A-623],100 to 1000 nM
10,Cc1ccnc(Nc2cccc(-c3cnc(N(C)CC(=O)O)s3)n2)c1 [Compound A-555],100 to 1000 nM
11,CCOC(=O)N1CCC(N(C)c2ncc(-c3cccc(Nc4cc(C)ccn4)n3)s2)CC1 [Compound A-445],100 to 1000 nM
12,CNC(=O)CN(C)Cc1ncc(-c2cccc(Nc3cc(C)ccn3)n2)s1 [Compound A-687],100 to 1000 nM
13,NC(=O)[C@@H]1CCCN1c1ncc(-c2cccc(Nc3cc(CC(=O)O)ccn3)n2)s1 [Compound A-559],100 to 1000 nM
14,COc1ccc(C)cc1Nc1cccc(-c2cnc(N3CCC(CC(=O)O)CC3)s2)n1 [Compound A-708],100 to 1000 nM

# Further lines, results first:
row,IC50,Structure (SMILES)
1,< 100 nM,"Cc1ccnc(Nc2cccc(-c3cnc(N4CCC5(CC4)CC5C(=O)O)s3)n2)c1 (stereo not drawn) [Compound A-712, 6-{5-[6-(4-methylpyridin-2-ylamino)pyridin-2-yl]thiazol-2-yl}-6-azaspiro[2.5]octane-1-carboxylic acid]"
2,< 100 nM,"Cc1ccnc(Nc2cccc(-c3cnc(N(C)C4CCN(C(=O)N(C)C)CC4)s3)n2)c1 [Compound A-511, N,N-dimethyl-4-(N′-methyl-N′-{5-[6-(4-methylpyridin-2-ylamino)pyridin-2-yl]thiazol-2-yl}amino)piperidine-1-carboxamide]"
3,< 100 nM,"C=CCN(CC=C)c1ncc(-c2cccc(Nc3cc(C)ccn3)n2)s1 [Compound A-507, N,N-diallyl-N-{5-[6-(4-methylpyridin-2-ylamino)pyridin-2-yl]thiazol-2-yl}amine]"
4,< 100 nM,"O=C(O)CC1CCN(c2ncc(-c3cccc(Nc4cc(OCC(F)(F)F)ccn4)n3)s2)CC1 [Compound A-700, [1-(5-{6-[4-(2,2,2-trifluoroethoxy)pyridin-2-ylamino]pyridin-2-yl}thiazol-2-yl)piperidin-4-yl]acetic acid dihydrochloride]"
5,< 100 nM,"CN(c1ncc(-c2cccc(Nc3cc(C(F)(F)F)ccn3)n2)s1)[C@H]1CC[C@H](C(=O)O)CC1 [Compound A-638, trans-4-(N-methyl-N-{5-[6-(4-trifluoromethylpyridin-2-ylamino)pyridin-2-yl]thiazol-2-yl}amino)cyclohexanecarboxylic acid]"
6,< 100 nM,"Cc1ccnc(Nc2cccc(-c3cnc(CN(C)CC(N)=O)s3)n2)c1 [Compound A-697, 2-(N-methyl-N-{5-[6-(4-methylpyridin-2-ylamino)pyridin-2-yl]thiazol-2-ylmethyl}amino)acetamide]"
7,< 100 nM,"Cc1ccnc(Nc2cccc(-c3cnc(N(C)CCC/C=C(\F)C(=O)O)s3)n2)c1 [Compound A-647, (Z)-2-fluoro-6-(N-methyl-N-{5-[6-(4-methylpyridin-2-ylamino)pyridin-2-yl]thiazol-2-yl}amino)hex-2-enoic acid dihydrochloride]"
8,< 100 nM,"Cc1ccnc(Nc2cccc(-c3cnc(N4CCC(CC(=O)NS(C)(=O)=O)CC4)s3)n2)c1 [Compound A-633, N-[2-(1-{5-[6-(4-methylpyridin-2-ylamino)pyridin-2-yl]thiazol-2-yl}piperidin-4-yl)acetyl]methanesulfonamide]"
9,< 100 nM,"Cc1ccnc(Nc2cccc(-c3cnc(N4CCCC(CCCCC(=O)O)C4)s3)n2)c1 (stereo not drawn) [Compound A-719, 5-(1-{5-[6-(4-methylpyridin-2-ylamino)pyridin-2-yl]thiazol-2-yl}piperidin-3-yl)pentanoic acid dihydrochloride]"
10,< 100 nM,"Cc1ccnc(Nc2cccc(-c3cnc(N(C)c4ccc(CCC(=O)O)cc4)s3)n2)c1 [Compound A-639, 3-[4-(N-methyl-N-{5-[6-(4-methylpyridin-2-ylamino)pyridin-2-yl]thiazol-2-yl}amino)phenyl]propionic acid]"
11,< 100 nM,"Cc1ccnc(Nc2cccc(-c3cnc(N4CCC(CCO)CC4)s3)n2)c1 [Compound A-677, 2-(1-{5-[6-(4-methylpyridin-2-ylamino)pyridin-2-yl]thiazol-2-yl}piperidin-4-yl)ethanol]"
12,< 100 nM,"O=C(O)C(F)C1CCN(c2ncc(-c3cccc(Nc4ccccn4)n3)s2)CC1 (stereo not drawn) [Compound A-716, fluoro-(1-{5-[6-(pyridin-2-ylamino)pyridin-2-yl]thiazol-2-yl}piperidin-4-yl)acetic acid dihydrochloride]"
13,< 100 nM,"Cc1ccnc(Nc2cccc(-c3cnc(N4CCCc5c(C(=O)O)cccc54)s3)n2)c1 [Compound A-627, 1-{5-[6-(4-methylpyridin-2-ylamino)pyridin-2-yl]thiazol-2-yl}-1,2,3,4-tetrahydroquinoline-5-carboxylic acid]"
14,< 100 nM,"Cc1ccnc(Nc2cccc(-c3cnc(N(C)CC(C)(C)O)s3)n2)c1 [Compound A-702, 2-methyl-1-(N-methyl-N-{5-[6-(4-methylpyridin-2-ylamino)pyridin-2-yl]thiazol-2-yl}amino)propan-2-ol]"
15,< 100 nM,"CC(=CC(=O)O)CCCN(C)c1ncc(-c2cccc(Nc3cc(C)ccn3)n2)s1 [Compound A-656, 3-methyl-6-(N-methyl-N-{5-[6-(4-methylpyridin-2-ylamino)pyridin-2-yl]thiazol-2-yl}amino)hex-2-enoic acid dihydrochloride]"
16,< 100 nM,"Cc1ccnc(Nc2cccc(-c3cnc(NC(C)C)s3)n2)c1 [Compound A-693, N-isopropyl-N-{5-[6-(4-methylpyridin-2-ylamino)pyridin-2-yl]thiazol-2-yl}amine]"
17,< 100 nM,"Cc1ccnc(Nc2cccc(-c3cnc(N(C)CCC/C=C/C(=O)O)s3)n2)c1 [Compound A-640, (E)-6-(N-methyl-N-{5-[6-(4-methylpyridin-2-ylamino)pyridin-2-yl]thiazol-2-yl}amino)hex-2-enoic acid dihydrochloride]"
18,< 100 nM,"Cc1ccnc(Nc2cccc(-c3cnc(N(C)CCCCC(=O)O)s3)n2)c1 [Compound A-632, 5-(N-methyl-N-{5-[6-(4-methylpyridin-2-ylamino)pyridin-2-yl]thiazol-2-yl}amino)pentanoic acid]"
19,< 100 nM,"Cc1ccnc(Nc2cccc(-c3cnc(N4CCC(NS(C)(=O)=O)CC4)s3)n2)c1 [Compound A-484, N-(1-{5-[6-(4-methylpyridin-2-ylamino)pyridin-2-yl]thiazol-2-yl}piperidin-4-yl)methanesulfonamide]"
20,< 100 nM,"CC(=CC(=O)O)CCCN(C)c1ncc(-c2cccc(Nc3cc(C(F)(F)F)ccn3)n2)s1 [Compound A-655, 3-methyl-6-(N-methyl-N-{5-[6-(4-trifluoromethylpyridin-2-ylamino)pyridin-2-yl]thiazol-2-yl}amino)hex-2-enoic acid dihydrochloride]"

# Same assay, conditions: Tables 2-x, thiophene compounds B; read-out: sykHTRK ave IC50
row,Structure (SMILES),IC50
1,Cc1ccnc(Nc2cccc(-c3ccc(C(=O)NC[C@H]4CC[C@H](C(=O)O)CC4)s3)n2)c1 [Compound B-111],100 to 1000 nM
2,Cc1ccnc(Nc2cccc(-c3ccc(CN4CCc5cc(C(=O)O)ccc5C4)s3)n2)c1 [Compound B-107],100 to 1000 nM
3,"Cc1ccnc(Nc2cccc(-c3ccc(CN(Cc4ccc(C(=O)O)cc4)C(=O)C(C)C)s3)n2)c1 [Compound B-127, 4-[(N-isobutyryl-N-{5-[6-(4-methylpyridin-2-ylamino)pyridin-2-yl]thiophen-2-ylmethyl}amino)methyl]benzoic acid]",< 100 nM
4,Cc1ccnc(Nc2cccc(-c3ccc(CN4CCC(C(=O)O)CC4)s3)n2)c1 [Compound B-106],100 to 1000 nM
5,Cc1ccnc(Nc2cccc(-c3ccc(C(=O)NCc4ccc(C(=O)O)cc4)s3)n2)c1 [Compound B-112],100 to 1000 nM
